Data published in ChEMBL document CHEMBL2086274, “Synthesis, biological evaluation, and molecular docking of N-{3-[3-(9-methyl-9H-carbazol-3-yl)-acryloyl]-phenyl}-benzamide/amide derivatives as xanthine oxidase and tyrosinase inhibitors” (Bioorg Med Chem, 2012).

Columns and labels:
[1] = target: Xanthine dehydrogenase/oxidase (Bos taurus, UniProt P80457)
Description: Inhibition of bovine milk XO assessed as decrease in uric acid formation after 5 mins by UV-spectrophotometric analysis

Tyrosinase [2] = target: T1, Tyrosinase (Agaricus bisporus, UniProt O42713)
T1 sequence (O42713 whole entry): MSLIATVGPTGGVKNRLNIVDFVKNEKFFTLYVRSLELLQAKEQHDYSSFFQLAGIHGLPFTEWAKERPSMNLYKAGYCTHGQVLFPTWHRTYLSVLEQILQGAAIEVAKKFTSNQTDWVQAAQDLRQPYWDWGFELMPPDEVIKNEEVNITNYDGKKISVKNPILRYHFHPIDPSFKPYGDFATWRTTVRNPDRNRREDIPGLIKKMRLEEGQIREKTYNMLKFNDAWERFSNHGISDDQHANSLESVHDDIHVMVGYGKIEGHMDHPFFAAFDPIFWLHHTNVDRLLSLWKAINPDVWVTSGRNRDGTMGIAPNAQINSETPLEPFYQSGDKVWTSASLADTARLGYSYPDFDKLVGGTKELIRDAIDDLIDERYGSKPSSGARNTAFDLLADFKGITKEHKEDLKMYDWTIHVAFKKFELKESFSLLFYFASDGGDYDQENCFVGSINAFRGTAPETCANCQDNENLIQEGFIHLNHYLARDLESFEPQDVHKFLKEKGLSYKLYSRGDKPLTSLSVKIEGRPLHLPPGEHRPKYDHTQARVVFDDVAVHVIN
Description: Inhibition of mushroom tyrosinase using L-tyrosine as substrate after 5 mins by UV-spectrophotometric analysis

[3] = target: T2, Tyrosinase (Mus musculus) (UniProt P11344); experiment: Inhibition of tyrosinase in mouse B16F10 cells assessed as reduction of melanin production at 20 ug/ml after 72 hrs; format: cell-based; settings: B16-F10
T2 sequence (whole entry): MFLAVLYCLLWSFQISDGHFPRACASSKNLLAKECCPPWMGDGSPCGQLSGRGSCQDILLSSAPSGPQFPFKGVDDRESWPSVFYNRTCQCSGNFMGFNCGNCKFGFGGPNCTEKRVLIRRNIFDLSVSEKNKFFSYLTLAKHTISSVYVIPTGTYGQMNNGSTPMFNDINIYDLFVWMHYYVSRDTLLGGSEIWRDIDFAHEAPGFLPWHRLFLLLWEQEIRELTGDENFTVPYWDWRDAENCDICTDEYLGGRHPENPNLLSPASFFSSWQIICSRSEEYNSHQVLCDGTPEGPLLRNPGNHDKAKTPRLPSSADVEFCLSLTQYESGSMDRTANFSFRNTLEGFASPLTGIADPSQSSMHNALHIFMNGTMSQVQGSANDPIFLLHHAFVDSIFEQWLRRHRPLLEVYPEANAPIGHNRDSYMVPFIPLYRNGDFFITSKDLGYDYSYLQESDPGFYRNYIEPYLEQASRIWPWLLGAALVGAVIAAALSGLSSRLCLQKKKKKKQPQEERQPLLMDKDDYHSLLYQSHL

[4] = Cytotoxicity against mouse B16F10 cells assessed as cell viability at 20 ug/ml after 76 hrs by MTT assay; format: cell-based, B16-F10; settings: read-out: Activity
Tyrosinase [5] = target: T1, Tyrosinase; remark: listed apart in the source
Description: Inhibition of mushroom tyrosinase using L-DOPA as substrate after 5 mins by UV-spectrophotometric analysis

Tyrosinase [6] = target: T1, Tyrosinase; experiment: Competitive inhibition of mushroom tyrosinase using L-DOPA as substrate after 5 mins by Lineweaver-Burk plot analysis

Chain of Xanthine dehydrogenase/oxidase (P80457 whole entry): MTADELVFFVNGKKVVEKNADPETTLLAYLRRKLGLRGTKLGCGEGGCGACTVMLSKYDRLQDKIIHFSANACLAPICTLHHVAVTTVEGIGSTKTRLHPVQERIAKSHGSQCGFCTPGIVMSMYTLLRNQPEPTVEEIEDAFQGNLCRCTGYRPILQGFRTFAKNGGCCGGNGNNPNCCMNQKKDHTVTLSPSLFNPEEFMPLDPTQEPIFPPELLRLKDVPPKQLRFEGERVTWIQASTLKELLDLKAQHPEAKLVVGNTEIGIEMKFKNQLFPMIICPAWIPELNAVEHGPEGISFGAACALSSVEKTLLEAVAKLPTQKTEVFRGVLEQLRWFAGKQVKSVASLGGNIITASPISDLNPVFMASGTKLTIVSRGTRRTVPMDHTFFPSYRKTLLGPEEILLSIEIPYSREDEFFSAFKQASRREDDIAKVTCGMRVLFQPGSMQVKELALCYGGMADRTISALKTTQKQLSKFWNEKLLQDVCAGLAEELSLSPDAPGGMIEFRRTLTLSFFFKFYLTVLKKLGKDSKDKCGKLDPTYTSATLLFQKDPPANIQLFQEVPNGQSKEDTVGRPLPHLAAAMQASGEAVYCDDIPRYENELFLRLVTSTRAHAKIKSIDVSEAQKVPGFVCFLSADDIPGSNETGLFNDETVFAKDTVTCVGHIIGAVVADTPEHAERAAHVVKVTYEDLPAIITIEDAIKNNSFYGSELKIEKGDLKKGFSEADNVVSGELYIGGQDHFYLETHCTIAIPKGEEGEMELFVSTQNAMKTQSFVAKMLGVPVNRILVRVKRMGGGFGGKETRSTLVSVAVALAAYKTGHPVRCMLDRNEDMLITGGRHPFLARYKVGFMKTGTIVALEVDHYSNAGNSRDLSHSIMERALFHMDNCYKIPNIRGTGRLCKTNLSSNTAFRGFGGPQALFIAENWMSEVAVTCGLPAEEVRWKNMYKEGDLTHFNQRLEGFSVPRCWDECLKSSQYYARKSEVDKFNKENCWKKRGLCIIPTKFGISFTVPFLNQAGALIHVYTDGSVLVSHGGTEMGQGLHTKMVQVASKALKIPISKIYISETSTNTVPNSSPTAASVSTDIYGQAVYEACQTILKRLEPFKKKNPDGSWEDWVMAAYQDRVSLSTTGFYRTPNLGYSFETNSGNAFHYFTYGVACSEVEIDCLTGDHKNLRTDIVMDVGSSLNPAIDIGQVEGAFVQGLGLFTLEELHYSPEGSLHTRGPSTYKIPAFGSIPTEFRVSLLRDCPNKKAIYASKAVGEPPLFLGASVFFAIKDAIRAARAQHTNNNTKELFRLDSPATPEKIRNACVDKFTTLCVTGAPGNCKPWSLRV

| SMILES | IC50 [1] [µM] | IC50 (Tyrosinase [2]) [µM] | inhibition [3] [%] | viability at 76 h, 20 ug/ml [4] [%] | IC50 (Tyrosinase [5]) [µM] | Ki (Tyrosinase [6]) [µM] |
| --- | --- | --- | --- | --- | --- | --- |
| Cn1c2ccccc2c2cc(/C=C/C(=O)c3cccc(NC(=O)c4cccc(C(F)(F)F)c4)c3)ccc21 | 5.1 | 65.2 | 30.1 | 80.1 | 75 |  |
| Cn1c2ccccc2c2cc(/C=C/C(=O)c3cccc(NC(=O)c4ccccc4Cl)c3)ccc21 | 30.3 | > 100 | 9.7 | 72 | > 100 |  |
| Cn1c2ccccc2c2cc(/C=C/C(=O)c3cccc(NC(=O)c4ccccc4F)c3)ccc21 | 79.5 | 18.2 | 40.5 | 84.5 | 15.2 |  |
| Cn1c2ccccc2c2cc(/C=C/C(=O)c3cccc(NC(=O)c4ccc(C(C)(C)C)cc4)c3)ccc21 | 57.1 | > 100 | 11.6 | 84 | > 100 |  |
| Cn1c2ccccc2c2cc(/C=C/C(=O)c3cccc(NC(=O)c4cccc(Cl)c4)c3)ccc21 | 4.4 | 48.1 | 29.4 | 80.5 | 56.5 |  |
| Cn1c2ccccc2c2cc(/C=C/C(=O)c3cccc(NC(=O)c4cccc(F)c4)c3)ccc21 | 4.5 | 35.2 | 20.6 | 83.9 | 42 |  |
| Cn1c2ccccc2c2cc(/C=C/C(=O)c3cccc(NC(=O)/C=C/c4ccccc4)c3)ccc21 | 5.1 | 85.2 | 15.9 | 81 | 78.2 |  |
| Cc1cccc(C(=O)Nc2cccc(C(=O)/C=C/c3ccc4c(c3)c3ccccc3n4C)c2)c1 | 20.7 | 35.2 | 21.7 | 83.6 | 29.3 |  |
| Cn1c2ccccc2c2cc(/C=C/C(=O)c3cccc(NC(=O)c4ccco4)c3)ccc21 | > 100 | 46.5 | 10.7 | 86.6 | 60.3 |  |
| Cn1c2ccccc2c2cc(/C=C/C(=O)c3cccc(NC(=O)c4ccc(Cl)cc4)c3)ccc21 | 5.6 | 17.5 | 36.1 | 81.1 | 15.1 |  |
| CC(=O)Nc1cccc(C(=O)/C=C/c2ccc3c(c2)c2ccccc2n3C)c1 | > 100 | 80.2 | 15.6 | 80.6 | 77.5 |  |
| Cn1c2ccccc2c2cc(/C=C/C(=O)c3cccc(NC(=O)c4cccc(Br)c4)c3)ccc21 | 88.2 | > 100 | 10.2 | 78.9 | > 100 |  |
| Cc1ccc(C(=O)Nc2cccc(C(=O)/C=C/c3ccc4c(c3)c3ccccc3n4C)c2)cc1 | 5.3 | 15.1 | 25.4 | 82.7 | 15.2 |  |
| Cn1c2ccccc2c2cc(/C=C/C(=O)c3cccc(N)c3)ccc21 | 48.5 | 48.2 | 20.1 | 76.4 | 50.5 |  |
| Cn1c2ccccc2c2cc(/C=C/C(=O)c3cccc(NC(=O)c4cccs4)c3)ccc21 | > 100 | 62.4 | 12.8 | 82.1 | 71.9 |  |
| Cn1c2ccccc2c2cc(/C=C/C(=O)c3cccc(NC(=O)C4CC4)c3)ccc21 | 4.3 | 80.2 | 30 | 79.5 | 74.5 |  |
| Cn1c2ccccc2c2cc(/C=C/C(=O)c3cccc(NC(=O)c4ccccc4)c3)ccc21 | 42.7 | 14 | 42.5 | 86.7 | 15.1 | 11.8 |
| Cc1ccccc1C(=O)Nc1cccc(C(=O)/C=C/c2ccc3c(c2)c2ccccc2n3C)c1 | > 100 | > 100 | 8.1 | 60.9 | > 100 |  |
| Cn1c2ccccc2c2cc(/C=C/C(=O)c3cccc(NC(=O)c4ccc(F)cc4)c3)ccc21 | 25.8 | 15.1 | 24 | 88.7 | 16.5 |  |
